Measured values reported in the NIST ThermoML archive (doi:10.1016/j.jct.2010.02.015).
Values joined by “and” are separate entries in the source; they are usually repeats but may differ in a detail not shown here. Equal values may be shown once.

Conditions: Gas, Buoyancy - hydrostatic balance with magnetic suspension - two sinkers

[He] [helium]
Conditions	mass density
323.15 K, 4247.2 kPa	6.2127 kg/m3
323.15 K, 4247.3 kPa	6.2128 kg/m3 and 6.2127 kg/m3
323.15 K, 4851.3 kPa	7.0783 kg/m3 and 7.0787 kg/m3 and 7.0785 kg/m3
323.15 K, 4851.4 kPa	7.0788 kg/m3
323.15 K, 7550.9 kPa	10.893 kg/m3
323.15 K, 7551 kPa	10.8932 kg/m3 and 10.8928 kg/m3 and 10.8929 kg/m3
323.15 K, 7816.5 kPa	11.2639 kg/m3
323.15 K, 7816.6 kPa	11.264 kg/m3 and 11.2637 kg/m3
323.15 K, 11516 kPa	16.3444 kg/m3 and 16.3445 kg/m3
323.15 K, 11561 kPa	16.4063 kg/m3 and 16.4048 kg/m3
323.15 K, 15406 kPa	21.5262 kg/m3 and 21.5263 kg/m3 and 21.5265 kg/m3
323.15 K, 15457 kPa	21.5934 kg/m3 and 21.5932 kg/m3
323.15 K, 15458 kPa	21.5942 kg/m3
323.15 K, 18569 kPa	25.6255 kg/m3 and 25.6259 kg/m3
323.15 K, 18570 kPa	25.6261 kg/m3 and 25.6263 kg/m3
323.15 K, 19211 kPa	26.4456 kg/m3
323.15 K, 19212 kPa	26.4466 kg/m3 and 26.446 kg/m3
323.15 K, 24300 kPa	32.8067 kg/m3
323.15 K, 24301 kPa	32.8072 kg/m3 and 32.807 kg/m3 and 32.8069 kg/m3
323.15 K, 25287 kPa	34.0129 kg/m3 and 34.0124 kg/m3
323.15 K, 25288 kPa	34.0134 kg/m3
323.15 K, 25289 kPa	34.0147 kg/m3
323.15 K, 30738 kPa	40.5213 kg/m3
323.15 K, 30739 kPa	40.522 kg/m3
323.15 K, 30740 kPa	40.5237 kg/m3 and 40.5227 kg/m3
323.15 K, 32137 kPa	42.1508 kg/m3
323.15 K, 32138 kPa	42.1518 kg/m3 and 42.1514 kg/m3
323.15 K, 32139 kPa	42.1524 kg/m3
323.15 K, 37733 kPa	48.5152 kg/m3
323.15 K, 37734 kPa	48.5163 kg/m3
323.15 K, 37735 kPa	48.5178 kg/m3
323.15 K, 37736 kPa	48.5195 kg/m3
323.15 K, 37959 kPa	48.7675 kg/m3
323.15 K, 37960 kPa	48.7683 kg/m3 and 48.7679 kg/m3
323.15 K, 37961 kPa	48.7698 kg/m3
350 K, 4685.1 kPa	6.3268 kg/m3 and 6.3265 kg/m3
350 K, 4685.2 kPa	6.3269 kg/m3 and 6.3267 kg/m3
350 K, 7452.5 kPa	9.9569 kg/m3 and 9.9566 kg/m3 and 9.9568 kg/m3
350 K, 11158 kPa	14.7003 kg/m3 and 14.7004 kg/m3 and 14.7008 kg/m3
350 K, 15078 kPa	19.5787 kg/m3 and 19.579 kg/m3 and 19.5788 kg/m3
350 K, 15079 kPa	19.5795 kg/m3
350 K, 18991 kPa	24.3127 kg/m3 and 24.3128 kg/m3
350 K, 18992 kPa	24.313 kg/m3 and 24.3135 kg/m3
350 K, 24052 kPa	30.2468 kg/m3 [middle of 4 runs]
350 K, 30655 kPa	37.6887 kg/m3
350 K, 30656 kPa	37.6893 kg/m3 and 37.6888 kg/m3
350 K, 30658 kPa	37.6913 kg/m3
350 K, 37804 kPa	45.3924 kg/m3
350 K, 37805 kPa	45.3931 kg/m3
350 K, 37806 kPa	45.3936 kg/m3 and 45.3946 kg/m3
375 K, 4669.4 kPa	5.8931 kg/m3 and 5.893 kg/m3 and 5.8932 kg/m3
375 K, 7673.3 kPa	9.581 kg/m3 and 9.5809 kg/m3
375 K, 7673.4 kPa	9.5815 kg/m3 and 9.5814 kg/m3
375 K, 7673.5 kPa	9.5816 kg/m3
375 K, 11339 kPa	13.9783 kg/m3 and 13.9779 kg/m3 and 13.9781 kg/m3
375 K, 14992 kPa	18.2509 kg/m3 and 18.2507 kg/m3
375 K, 14993 kPa	18.2512 kg/m3 and 18.2509 kg/m3
375 K, 19144 kPa	22.9816 kg/m3 and 22.9811 kg/m3 and 22.981 kg/m3
375 K, 19145 kPa	22.9817 kg/m3 and 22.9816 kg/m3
375 K, 24590 kPa	28.996 kg/m3
375 K, 24591 kPa	28.9965 kg/m3 and 28.9964 kg/m3 and 28.9966 kg/m3
375 K, 30460 kPa	35.251 kg/m3
375 K, 30461 kPa	35.2518 kg/m3 and 35.2512 kg/m3
375 K, 30462 kPa	35.2524 kg/m3
375 K, 30463 kPa	35.2534 kg/m3
375 K, 37969 kPa	42.9318 kg/m3
375 K, 37970 kPa	42.9322 kg/m3
375 K, 37971 kPa	42.9332 kg/m3
375 K, 37972 kPa	42.9339 kg/m3
375 K, 37973 kPa	42.9352 kg/m3
400 K, 5058.3 kPa	5.9844 kg/m3 [middle of 4 runs]
400 K, 7571.3 kPa	8.8831 kg/m3 and 8.8829 kg/m3
400 K, 7571.4 kPa	8.883 kg/m3 and 8.8833 kg/m3
400 K, 11460 kPa	13.2766 kg/m3 and 13.2769 kg/m3 and 13.2767 kg/m3
400 K, 14777 kPa	16.9377 kg/m3 [middle of 4 runs]
400 K, 19142 kPa	21.6423 kg/m3 and 21.6418 kg/m3 and 21.6416 kg/m3
400 K, 19143 kPa	21.6425 kg/m3
400 K, 23882 kPa	26.6105 kg/m3
400 K, 23883 kPa	26.6111 kg/m3
400 K, 23884 kPa	26.6117 kg/m3 and 26.6114 kg/m3
400 K, 29989 kPa	32.8083 kg/m3
400 K, 29990 kPa	32.8093 kg/m3 and 32.8086 kg/m3
400 K, 29991 kPa	32.8101 kg/m3
400 K, 37939 kPa	40.5581 kg/m3
400 K, 37940 kPa	40.5595 kg/m3
400 K, 37941 kPa	40.56 kg/m3
400 K, 37942 kPa	40.5606 kg/m3
425 K, 7875.4 kPa	8.7027 kg/m3
425 K, 7875.6 kPa	8.703 kg/m3
425 K, 7875.7 kPa	8.703 kg/m3
425 K, 7875.8 kPa	8.7031 kg/m3
425 K, 11516 kPa	12.586 kg/m3 and 12.5859 kg/m3
425 K, 11517 kPa	12.5867 kg/m3 and 12.5863 kg/m3
425 K, 15540 kPa	16.7803 kg/m3
425 K, 15541 kPa	16.7806 kg/m3 and 16.7809 kg/m3
425 K, 19133 kPa	20.4427 kg/m3 and 20.4422 kg/m3
425 K, 19134 kPa	20.4431 kg/m3
425 K, 25118 kPa	26.3791 kg/m3
425 K, 25119 kPa	26.3797 kg/m3
425 K, 25120 kPa	26.3801 kg/m3 and 26.3808 kg/m3
425 K, 31604 kPa	32.5927 kg/m3
425 K, 31605 kPa	32.5929 kg/m3
425 K, 31606 kPa	32.5939 kg/m3
425 K, 31607 kPa	32.5953 kg/m3
425 K, 37906 kPa	38.4268 kg/m3
425 K, 37908 kPa	38.4278 kg/m3
425 K, 37909 kPa	38.4293 kg/m3
425 K, 37913 kPa	38.4326 kg/m3
450 K, 4775.3 kPa	5.0371 kg/m3
450 K, 4775.4 kPa	5.0373 kg/m3 and 5.0374 kg/m3
450 K, 7655.9 kPa	8.0083 kg/m3
450 K, 7656 kPa	8.0084 kg/m3 and 8.0085 kg/m3
450 K, 11907 kPa	12.3041 kg/m3 [middle of 4 runs]
450 K, 15358 kPa	15.7171 kg/m3 [middle of 4 runs]
450 K, 18965 kPa	19.2155 kg/m3
450 K, 18966 kPa	19.2158 kg/m3 and 19.2164 kg/m3 and 19.2154 kg/m3
450 K, 24940 kPa	24.8633 kg/m3 and 24.8624 kg/m3
450 K, 24941 kPa	24.8636 kg/m3
450 K, 24943 kPa	24.8658 kg/m3
450 K, 31394 kPa	30.7672 kg/m3
450 K, 31395 kPa	30.7683 kg/m3
450 K, 31396 kPa	30.7693 kg/m3
450 K, 31398 kPa	30.7705 kg/m3
450 K, 37608 kPa	36.2728 kg/m3
450 K, 37610 kPa	36.274 kg/m3
450 K, 37611 kPa	36.2757 kg/m3
450 K, 37613 kPa	36.2772 kg/m3
475 K, 4812.4 kPa	4.813 kg/m3 and 4.8133 kg/m3 and 4.8131 kg/m3
475 K, 7937.7 kPa	7.8707 kg/m3
475 K, 7937.9 kPa	7.871 kg/m3
475 K, 7938 kPa	7.8709 kg/m3
475 K, 11474 kPa	11.2698 kg/m3 and 11.2694 kg/m3
475 K, 11475 kPa	11.2697 kg/m3 and 11.2696 kg/m3
475 K, 15102 kPa	14.6905 kg/m3 and 14.6903 kg/m3 and 14.69 kg/m3
475 K, 15103 kPa	14.6908 kg/m3
475 K, 18995 kPa	18.29 kg/m3 and 18.2901 kg/m3 and 18.2895 kg/m3
475 K, 18996 kPa	18.2908 kg/m3
475 K, 25698 kPa	24.3237 kg/m3 and 24.3233 kg/m3
475 K, 25699 kPa	24.3246 kg/m3
475 K, 31116 kPa	29.0563 kg/m3
475 K, 31118 kPa	29.0576 kg/m3
475 K, 31119 kPa	29.0583 kg/m3
475 K, 31122 kPa	29.0604 kg/m3
475 K, 37990 kPa	34.8852 kg/m3
475 K, 37992 kPa	34.8873 kg/m3
475 K, 37994 kPa	34.8888 kg/m3
475 K, 37996 kPa	34.891 kg/m3
499.99 K, 37868 kPa	33.2206 kg/m3
500 K, 4928 kPa	4.6849 kg/m3 and 4.6846 kg/m3 and 4.685 kg/m3
500 K, 7887.1 kPa	7.4404 kg/m3 and 7.4403 kg/m3
500 K, 7887.3 kPa	7.4406 kg/m3
500 K, 11580 kPa	10.8213 kg/m3 and 10.8221 kg/m3 and 10.8212 kg/m3
500 K, 11581 kPa	10.8215 kg/m3
500 K, 15421 kPa	14.2721 kg/m3 and 14.2719 kg/m3
500 K, 15422 kPa	14.2732 kg/m3 and 14.2727 kg/m3
500 K, 19581 kPa	17.9371 kg/m3 and 17.9369 kg/m3
500 K, 19583 kPa	17.9388 kg/m3
500 K, 25162 kPa	22.7413 kg/m3
500 K, 25163 kPa	22.7419 kg/m3
500 K, 25166 kPa	22.7445 kg/m3
500 K, 30651 kPa	27.3437 kg/m3
500 K, 30652 kPa	27.3446 kg/m3
500 K, 30653 kPa	27.3454 kg/m3
500 K, 30654 kPa	27.3459 kg/m3
500 K, 37864 kPa	33.2185 kg/m3
500 K, 37865 kPa	33.2203 kg/m3
500 K, 37870 kPa	33.2239 kg/m3
